The values below come from US8865894B2, “Oxazolidin-2-one compounds and uses thereof” (Novartis AG, priority 2012, dated 2014).

For series [1], the target named is T1, human PI3Kdelta p110 catalytic subunit (Rat-1 pBABEpuro Myr-HA-hp110 delta) (Homo sapiens, UniProt O00329).
T1 construct: Myr (myristoylation signal) (N); HA (N); expressed in transfected cells; host or cells: Rat-1
The series is described as follows: Cellular assay PI3Kdelta (p-Akt(S473) SureFire, Rat-1_PI3Kdelta cells). The format is cell-based. Conditions: 1 h compound treatment, read-out: Rat1-PI3Kd/ IC50. The text has this:
AlphaScreen (Amplified Luminescent Proximity Homogeneous Assay, ALPHA, Perkin Elmer) is a non-radioactive bead-based proximity assay technology to study biomolecular interactions in a homogenous microtiter plate format. The brand name SureFire denotes AlphaScreen assays that are adapted to quantify the phosphorylation of endogenous cellular proteins in cell lysates, by using matched antibody pairs, which consist of an anti-phospho-kinase and an anti-kinase antibody. The assay allows characterization of kinase signaling in cells as well as measurement of kinase inhibitor effects. The AlphaScreen technology provides several advantages over standard assay techniques such as ELISA, as it avoids time-consuming washing procedures and reduces plate handling. Furthermore, it is miniaturizable at least to a 384-well format and provides sensitivity down to the femtomolar range, dependent on the affinity of the antibodies included in the individual AlphaScreen SureFire assay kit. High sensitivity is reached by an intrinsic amplification mechanism, which involves production of singlet oxygen molecules. SureFire assay kits are commercially available for specific targets and include pairs of validated antibodies (PerkinElmer). This report describes common procedures applied for AlphaScreen SureFire assays and respective semi-automated steps for routine kinase inhibitor profiling in cell-based assays.
The Rat-1 cell lines stably overexpressing activated PI3K class I isoforms Rat-1 pBABEpuro Myr-HA-hp110 delta (Rat-1_PI3Kdelta) and Rat-1 pBABEpuro Myr-HA-hp110alpha (Rat-1_PI3Kalpha) and Rat-1 pBABEpuro Myr-HA-hp110 beta (Rat-1_PI3beta) were prepared as described (Maira S M, Stauffer F, Brueggen J, Furet P, Schnell C, Fritsch C, Brachmann S, Chène P, de Pover A, Schoemaker K, Fabbro D, Gabriel D, Simonen M, Murphy L, Finan P, Sellers W, García-Echeverría C (2008), Mol Cancer Ther. 7:1851-63 and Maira S M, Pecchi S, Brueggen J, Huh K, Schnell C, Fritsch C, Nagel T, Wiesmann M, Brachmann S, Dorsch M, Chène P, Schoemaker K, De Pover A, Menezes D, Fabbro D, Sellers W, García-Echeverría C, Voliva C F (2011), Mol. Cancer Ther., accepted). All cell lines were cultivated in complete growth medium (DMEM high glucose, 10% (v/v) fetal bovine serum, 1% (v/v) MEM NEAA, 10 mM HEPES, 2 mM L-glutamine, puromycin (10 μg/mL for Rat-1_PI3Kdelta and Rat-1_PI3Kalpha, 4 ug/mL for Rat-1_PI3beta), 1% (v/v) Pen/Strep) to 90% confluency at 37° C./5% CO2/90% humidity in a humidified CO2 incubator and were split twice a week.
The following materials were used for p-AKT(S473) detection in Rat-1 cell lysates: Dulbecco's modified Eagle's medium (DMEM) high glucose (Gibco Invitrogen, Basel, Switzerland, Cat. No. 41965), Heat Inactivated Fetal Bovine Serum, Qualified (HI FBS; Gibco Invitrogen, Basel, Switzerland, Lot. No. 16140), MEM non essential amino acids (NEAA; Gibco Invitrogen, Basel, Switzerland, Cat. No. 11140), HEPES (Gibco Invitrogen, Basel, Switzerland, Cat. No. 15630), Penicillin/Streptomycin (Pen/Strep, 100×; Gibco Invitrogen, Basel, Switzerland, Cat. No. 15140-122), L-Glutamine (Gibco Invitrogen, Basel, Switzerland, Cat. No. 25030), Puromycin (Sigma Aldrich, Buchs, Switzerland, Cat. No. P9620), DMSO (MERCK, Dietikon, Switzerland, Cat. No. 8.02912.2500), H2O, MilliQ-H2O unless otherwise stated (MILLIPORE QGARDOOR1, Millipore, Zug, Switzerland), Bovine serum albumine (BSA; Sigma Aldrich, Buchs, Switzerland Cat. No. A8412), SureFire p-Akt 1/2 (Ser473) Assay Kit (PerkinElmer, Schwerzenbach, Switzerland, Cat. No. TGRAS50K).
The p-Akt(S473) SureFire assay measures the phosphorylation of endogenous cellular Akt 1/2 at Ser473 in cell lysates. Using Rat-1 cells stably expressing myr-HA-tagged versions of the human PI3Kdelta, PI3Kalpha, or PI3Kbeta p110 catalytic subunit isoforms, the assay was developed as a two-plate protocol in a 384-well format.

The test system of the next series is A2058 cells. The series is described as follows: Cell cycle G2/M arrest Cytospin assay to detect tubulin binding (off-target). The format is cell-based. Also noted: key: 0=no condensed DNA observed (indicating no off target activity); 1=(indicating weak off target activity); 2=(indicating medium off target activity); 3=large amount of condensed DNA observed (indicating strong off-target activity). Conditions: 5 μM test item, 24 hours. As for the experimental part: The off-target effect (evidence of tubulin binding) was measured as follows.
Cell cycle G2/M arrest Cytospin assay to detect tubulin binding (off-target) binding activities of MAPP derivatives: 5×10^5 cells A2058 cells were plated in 6-well cluster, with 2 mL of DMEM (high Glucose containing 1% sodium pyruvate, 1% glutamin and 10% FCS). 18 hours later, the test items were added at a concentration of 5 μM (spiking 1 μL of a 10 mM solution of the test item). 24 hours later, the cells were trypsinized and transferred into a 15 mL conical tube. Cells are then pelleted by centrifugation, and resuspended with PBS/0 (containing 10% FCS). Cells are counted with a CASY counter, and each samples equilibrated to 1×10^6 cells/mL. […] The staining was visually assessed for the presence of condensed DNA and given a score where 0=no condensed DNA observed (indicating no off target activity), 1=(indicating weak off target activity), 2=(indicating medium off target activity), 3=large amount of condensed DNA observed (indicating strong off-target activity).

T1 sequence (O00329 whole entry): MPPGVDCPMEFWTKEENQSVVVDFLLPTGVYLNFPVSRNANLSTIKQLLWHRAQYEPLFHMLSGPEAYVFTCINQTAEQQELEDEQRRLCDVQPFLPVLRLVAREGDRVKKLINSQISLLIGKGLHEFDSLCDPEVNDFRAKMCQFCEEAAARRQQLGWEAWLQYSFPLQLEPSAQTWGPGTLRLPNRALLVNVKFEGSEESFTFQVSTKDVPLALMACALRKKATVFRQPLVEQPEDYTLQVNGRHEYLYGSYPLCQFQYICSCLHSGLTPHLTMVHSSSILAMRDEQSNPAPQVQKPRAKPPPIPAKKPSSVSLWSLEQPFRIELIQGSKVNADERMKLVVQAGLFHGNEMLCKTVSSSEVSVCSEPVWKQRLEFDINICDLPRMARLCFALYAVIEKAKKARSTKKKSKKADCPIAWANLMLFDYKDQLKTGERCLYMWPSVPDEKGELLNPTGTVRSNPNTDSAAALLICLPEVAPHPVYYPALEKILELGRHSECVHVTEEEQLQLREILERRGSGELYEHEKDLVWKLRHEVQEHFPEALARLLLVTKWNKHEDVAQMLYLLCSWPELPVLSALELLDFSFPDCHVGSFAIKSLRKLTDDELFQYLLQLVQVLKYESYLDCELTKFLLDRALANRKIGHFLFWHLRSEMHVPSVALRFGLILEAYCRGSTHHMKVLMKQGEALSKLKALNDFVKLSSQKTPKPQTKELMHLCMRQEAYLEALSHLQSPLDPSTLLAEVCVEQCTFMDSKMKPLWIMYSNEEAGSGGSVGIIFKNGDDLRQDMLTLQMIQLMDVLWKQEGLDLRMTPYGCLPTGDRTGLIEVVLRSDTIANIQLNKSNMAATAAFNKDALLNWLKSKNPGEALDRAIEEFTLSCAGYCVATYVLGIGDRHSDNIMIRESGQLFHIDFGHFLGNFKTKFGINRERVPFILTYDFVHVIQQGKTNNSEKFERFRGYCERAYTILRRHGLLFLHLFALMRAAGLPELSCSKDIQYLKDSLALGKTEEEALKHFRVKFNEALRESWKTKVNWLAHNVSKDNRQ
T1 sequence (Q63787 whole entry partner): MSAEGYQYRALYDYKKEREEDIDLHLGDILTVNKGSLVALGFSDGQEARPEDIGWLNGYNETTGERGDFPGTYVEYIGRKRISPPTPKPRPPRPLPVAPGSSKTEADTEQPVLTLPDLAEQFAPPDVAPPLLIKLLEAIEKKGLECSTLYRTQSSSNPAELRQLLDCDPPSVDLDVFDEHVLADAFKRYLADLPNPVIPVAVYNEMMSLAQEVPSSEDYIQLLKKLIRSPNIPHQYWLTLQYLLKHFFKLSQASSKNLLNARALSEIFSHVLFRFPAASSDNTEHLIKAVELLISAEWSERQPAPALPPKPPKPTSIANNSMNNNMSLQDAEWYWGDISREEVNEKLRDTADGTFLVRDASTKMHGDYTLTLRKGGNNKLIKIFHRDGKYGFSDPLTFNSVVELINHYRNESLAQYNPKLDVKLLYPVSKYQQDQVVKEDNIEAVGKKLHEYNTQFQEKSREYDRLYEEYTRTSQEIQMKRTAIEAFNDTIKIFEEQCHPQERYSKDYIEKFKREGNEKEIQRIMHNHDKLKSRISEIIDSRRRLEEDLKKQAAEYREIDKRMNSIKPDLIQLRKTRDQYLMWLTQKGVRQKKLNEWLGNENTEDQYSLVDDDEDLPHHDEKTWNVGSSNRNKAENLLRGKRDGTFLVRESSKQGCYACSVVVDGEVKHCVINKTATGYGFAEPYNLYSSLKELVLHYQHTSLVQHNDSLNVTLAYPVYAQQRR

Turning to `Nc1ncc(-c2cc(N3C[C@@H](CO)OC3=O)nc(N3CCOCC3)n2)c(C(F)(F)F)n1` [Example 14, (S)-3-(2′-Amino-2-morpholin-4-yl-4′-trifluoromethyl-[4,5′]bipyrimidinyl-6-yl)-5-hydroxymethyl-oxazolidin-2-one], the IC50 in series [1] amounted to 101 nM. In addition, the “Score (condensed DNA, G2/M arrest; off-target tubulin binding)” value (“Score” below) with A2058 cells is 0.

For the compound `C[C@H]1[C@H](CO)OC(=O)N1c1cc(-c2cnc(N)nc2C(F)(F)F)nc(N2CCOCC2)n1` [Example 15, (4S,5R)-3-(2′-Amino-2-morpholin-4-yl-4′-trifluoromethyl-[4,5′]bipyrimidinyl-6-yl)-5-hydroxymethyl-4-methyl-oxazolidin-2-one], the IC50 in series [1] was determined as 53 nM. Besides, the “Score” value with A2058 cells was determined as 0.

On to `C[C@H]1CN(c2cc(-c3cnc(N)nc3C(F)(F)F)nc(N3CCOCC3)n2)C(=O)O1` [Example 16, (S)-3-(2′-Amino-2-morpholin-4-yl-4′-trifluoromethyl-[4,5′]bipyrimidinyl-6-yl)-5-methyl-oxazolidin-2-one], for which the IC50 in series [1] came out at 87 nM. For the same compound, the “Score” value with A2058 cells is 0.

Consider `[2H]C1([2H])OC([2H])([2H])C([2H])([2H])N(c2nc(-c3cnc(N)nc3C(F)(F)F)cc(N3C(=O)OC[C@@H]3C)n2)C1([2H])[2H]` [Example 17, (S)-3-(2′-amino-2-D8-morpholino-4′-(trifluoromethyl)-[4,5′-bipyrimidin]-6-yl)-4-methyloxazolidin-2-one], for which, in series [1], the IC50 is 155 nM. For the same compound, in the series with A2058 cells, the “Score” value is 0.

In the case of `C[C@H]1OC(=O)N(c2cc(-c3cnc(N)nc3C(F)(F)F)nc(N3CCOCC3)n2)[C@H]1CO` [Example 18, (4S,5R)-3-(2′-Amino-2-morpholin-4-yl-4′-trifluoromethyl-[4,5′]bipyrimidinyl-6-yl)-4-hydroxymethyl-5-methyl-oxazolidin-2-one], the IC50 in series [1] came to 28 nM. For the same compound, the “Score” value in the series on A2058 cells stood at 0.

For the compound `C[C@H]1[C@@H](CO)OC(=O)N1c1cc(-c2cnc(N)nc2C(F)(F)F)nc(N2CCOCC2)n1` [Example 19, (4S,5S)-3-(2′-Amino-2-morpholin-4-yl-4′-trifluoromethyl-[4,5′]bipyrimidinyl-6-yl)-5-hydroxymethyl-4-methyl-oxazolidin-2-one], in series [1], the IC50 was found to be 34 nM. Moreover, the “Score” value in the series with A2058 cells was found to be 0.

Take `Nc1ncc(-c2cc(N3C[C@H](CO)OC3=O)nc(N3CCOCC3)n2)c(C(F)(F)F)n1` [Example 20, (R)-3-(2′-Amino-2-morpholin-4-yl-4′-trifluoromethyl-[4,5′]bipyrimidinyl-6-yl)-5-hydroxymethyl-oxazolidin-2-one]: the IC50 in series [1] was 111 nM. For the same compound, the “Score” value in the series on A2058 cells is given as 1-2.

For the compound `Nc1ncc(-c2cc(N3C(=O)O[C@H]4COC[C@H]43)nc(N3CCOCC3)n2)c(C(F)(F)F)n1` [Example 21, (3aR,6aR)-3-(2′-amino-2-morpholino-4′-(trifluoromethyl)-[4,5′-bipyrimidin]-6-yl)-tetrahydrofuro[3,4-d]oxazol-2(3H)-one], the IC50 in series [1] is 61 nM. Also, the “Score” value in the series with A2058 cells came to 0.

As for `C[C@H]1[C@@H](CCO)OC(=O)N1c1cc(-c2cnc(N)nc2C(F)(F)F)nc(N2CCOCC2)n1` [Example 23, (4S,5R)-3-(2′-Amino-2-morpholino-4′-(trifluoromethyl)-[4,5′-bipyrimidin]-6-yl)-5-(2-hydroxyethyl)-4-methyloxazolidin-2-one], in series [1], the IC50 came to 16 nM. Moreover, the “Score” value in the series with A2058 cells is listed as 0.
